Assay results published in patent publication US20050106729A1, “Gene transfer methods and compositions” (priority 2002, published 2005).

Tested on: MMP-7 deficient corneal epithelial cells co-infected with CFB-EGSH-MMP-7 and FB-ERV retroviruses (ecdysone receptor)
Test: Ponasterone A induction of MMP-7 expression in co-infected corneal epithelial cells (immunohistochemistry)
Type: cell-based, mouse
Settings: 10 μM ponasterone A; two days after induction; induced vs non-induced infected cells
Description: A cDNA encoding mouse pro matrix metalloproteinase-7 (MMP-7) was obtained from the I.M.A.G.E. clone consortium. Using a PCR-based cloning strategy, the cDNA was inserted into the multiple cloning site of pCFP-EGSH (a plasmid vector including retroviral packaging signals and a multiple cloning site downstream of an ecdysone hormone receptor responsive promoter) to make plasmid pCFB-EGSH-MMP-7. A second plasmid used in these experiments was pFB-ERV, a plasmid vector with retroviral packaging signals, and expressing the constituents of functional ecdysone hormone receptors capable of binding ponasterone A and activating the ecdysone responsive promoter in pCFP-EGSH.
Replication deficient retroviral supematants from pCGB-EGSH-MMP-7 and […] were produced separately. The plasmid for pCFB-EGSH-MMP-7 or pFB-EGSH was co-transfected using a liposomal method into HEK293 cells along with the plasmids pEnv (expressing a retroviral ecotropic envelope protein) and pGag-Pol (expressing the gag and pol genes required for assembly of infectious retroviral particles). […]
MMP-7 deficient corneal epithelial cells co-infected with CFB-EGSH-MMP-7 and FB-ERV replication deficient retroviruses were induced with 10 μM ponasterone A. an ecdysone analog and a ligand for the ecdysone receptor. […] Immunolocalization was determined using epifluorescence microscopy.

CC(C)CC[C@@H](O)[C@](C)(O)[C@H]1CC[C@@]2(O)C3=CC(=O)[C@@H]4C[C@@H](O)[C@@H](O)C[C@]4(C)[C@H]3CC[C@]12C [ponasterone A]
Expression of MMP-7 (immunolocalization, epifluorescence microscopy): Expression of MMP-7 was seen only in infected epithelial cells induced with ponasterone A
